# Measured values as given in ChEMBL document CHEMBL1201862, “PubChem BioAssay data set” (2004).
# Calls of active or inactive are those of the source.
# Assays:
# [1] = luciferase reporter signal suppression in cells – H4 neuroglioma cells, luminescence, dose response (AID 1990); format: functional, cell-based
# [2] = Luminescence Cell-Based Dose Response HTS to Identify Inhibitors of 5'UTR Stem-Loop Driven Prion Protein mRNA Translation in H4 Neuroglioblastoma Cells. [Related pubchem assays: 1827 (Project Summary), 1813 (Primary HTS)]; format: functional
# [3] = alpha-synuclein stem-loop luciferase translation blockers – H4 neuroglioma cells, luminescence, confirmation (AID 1988); format: functional, cell-based
# [4] = system: INS1; assay: INS-1E survival protection against cytokine death – cell-based, luminescence, retest, dose response (AID 449756); format: functional; settings: Rattus norvegicus;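 also: cell death triggered by IL-1 beta plus TNF-alpha plus IFN-gamma mixture; protective hits raise ATP signal compared with cytokine alone wells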
# [5] = system: H9c2; assay: cells; format: functional, cell-based; settings: Rattus norvegicus, H9c2, Myocardium;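 also: confirmatory concentration-response retest of ultra-high-throughput screening hits for modulation of myocardial damage; cell death induced by hydrogen peroxide oxidative stress; compound pretreatment for 60 min then peroxide exposure for 2 h; potency is for protecting the cells against peroxide damage rather than for killing them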
# [6] = blockers of HIV-1 envelope-mediated cell-cell fusion – cherry-pick, dose response (AID 652057); format: functional, cell-based
# [7] = viability loss in CEM21 cells – cell-based, CellTiter-Glo luminescence, cherry-picked, cytotoxicity control for viral fusion inhibitor project, dose response (AID 652042); format: functional;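 also: potency for signal decrease meaning cytotoxicity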
# [8] = blockers of HIV-1 ZM109 envelope-driven cell-cell fusion – HeLa effector, CEM target cells, luciferase, cherry-pick, dose response (AID 652058); format: functional, cell-based;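 also: luciferase signal from HIV-1 Env mediated cell-cell fusion of effector and target cells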
# [9] = off-target signal loss in HeLa-CEM21 co-culture – HeLa F-luc CTL cells, cherry-picked, counter-screen for HIV-1 Env fusion inhibitor project, dose response (AID 652040); format: functional, cell-based;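 also: potency for signal decrease marking cytotoxic or nonspecific inhibition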
# [10] = HIV-1 AD8 envelope cell-cell fusion blockers – cherry-pick, dose response (AID 652062); format: functional, cell-based;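 also: luciferase signal from cell-cell fusion driven by HIV-1 clade B AD8 Env; potency is for inhibitors of fusion seen as a drop in luminescence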
# [11] = cells; format: functional, cell-based
# [12] = cells; format: functional, cell-based; remark: listed apart in the source
# [13] = molecular target: T1, Short transient receptor potential channel 4 (Mus musculus, UniProt Q9QUQ5); assay: block of DAMGO-driven TRPC4 calcium entry – cell-based, HEK293 TRPC4/mu-opioid, Fluo-4 calcium, dose response (AID 434942); format: functional;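 also: potency of inhibitors blocking the TRPC4 calcium response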
# T1 sequence (Q9QUQ5 whole entry): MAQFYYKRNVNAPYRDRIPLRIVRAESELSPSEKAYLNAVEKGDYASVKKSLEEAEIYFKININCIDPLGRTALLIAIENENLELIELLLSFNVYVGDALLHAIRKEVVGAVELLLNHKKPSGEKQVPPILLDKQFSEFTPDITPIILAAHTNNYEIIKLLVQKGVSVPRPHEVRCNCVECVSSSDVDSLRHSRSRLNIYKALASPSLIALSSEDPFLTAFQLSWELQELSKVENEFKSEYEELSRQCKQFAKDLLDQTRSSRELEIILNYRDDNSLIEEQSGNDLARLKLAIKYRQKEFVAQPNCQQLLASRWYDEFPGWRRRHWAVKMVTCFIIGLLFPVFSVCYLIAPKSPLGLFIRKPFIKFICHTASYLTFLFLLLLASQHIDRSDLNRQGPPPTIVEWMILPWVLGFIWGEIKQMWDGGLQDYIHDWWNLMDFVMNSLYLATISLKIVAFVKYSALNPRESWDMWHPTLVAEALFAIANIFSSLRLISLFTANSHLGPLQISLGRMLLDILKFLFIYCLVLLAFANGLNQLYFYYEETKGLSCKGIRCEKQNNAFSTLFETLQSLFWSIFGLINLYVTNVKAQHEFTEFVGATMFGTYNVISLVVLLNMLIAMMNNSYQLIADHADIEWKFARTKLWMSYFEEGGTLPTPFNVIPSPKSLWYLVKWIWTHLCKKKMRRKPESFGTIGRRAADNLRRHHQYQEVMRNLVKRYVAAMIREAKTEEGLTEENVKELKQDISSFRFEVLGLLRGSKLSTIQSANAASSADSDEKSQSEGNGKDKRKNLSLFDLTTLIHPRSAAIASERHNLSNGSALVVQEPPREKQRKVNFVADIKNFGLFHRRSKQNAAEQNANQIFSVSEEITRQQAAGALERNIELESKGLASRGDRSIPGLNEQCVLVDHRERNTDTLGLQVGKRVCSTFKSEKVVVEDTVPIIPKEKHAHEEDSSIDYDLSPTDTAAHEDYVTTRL
# [14] = molecular target: T2, Long-chain-fatty-acid--AMP ligase FadD28 (Mycobacterium tuberculosis, UniProt P9WQ59); assay: Fluorescence polarization aasay to screen for inhibitors that compete for the binding of FadD28 to a bisubstrate Measured in Biochemical System Using Plate Reader - 2147-01_Inhibitor_Dose_CherryPick_Activity.; format: functional, Mycobacterium tuberculosis H37Rv
# T2 sequence (P9WQ59 whole entry): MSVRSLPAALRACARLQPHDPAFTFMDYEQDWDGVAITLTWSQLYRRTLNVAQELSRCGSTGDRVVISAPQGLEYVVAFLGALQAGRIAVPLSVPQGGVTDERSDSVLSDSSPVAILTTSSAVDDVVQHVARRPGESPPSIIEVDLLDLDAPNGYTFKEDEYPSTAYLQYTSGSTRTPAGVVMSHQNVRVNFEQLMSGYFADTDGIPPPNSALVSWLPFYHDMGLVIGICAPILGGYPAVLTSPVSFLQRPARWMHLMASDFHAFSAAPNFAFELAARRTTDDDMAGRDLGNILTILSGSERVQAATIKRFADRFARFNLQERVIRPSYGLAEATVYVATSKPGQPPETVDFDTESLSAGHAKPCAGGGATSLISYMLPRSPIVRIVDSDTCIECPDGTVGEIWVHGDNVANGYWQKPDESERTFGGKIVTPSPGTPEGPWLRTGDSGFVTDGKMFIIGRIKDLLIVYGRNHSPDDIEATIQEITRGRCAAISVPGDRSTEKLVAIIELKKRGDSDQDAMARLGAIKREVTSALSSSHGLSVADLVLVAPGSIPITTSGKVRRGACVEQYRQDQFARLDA
# [15] = molecular target: Albumin (Bos taurus, UniProt P02769); assay: Counterscreen for inhibitors of T-cell receptor (TCR)-CD3 interaction: Fluorescence-based biochemical high throughput dose response assay to identify inhibitors of T-cell receptor (TCR)-CD3 interaction using a TAMRA-labeled BSA probe.; format: functional
# [16] = molecular target: T1, Short transient receptor potential channel 4; assay: calcium entry via TRPC4 opening agents – cell-based, HEK293 TRPC4/mu-opioid, Fluo-4 calcium, dose response (AID 434937); format: functional
# [17] = molecular target: T3, Histone-lysine N-methyltransferase NSD2 (Homo sapiens, UniProt O96028); format: biochemical
# T3 sequence (O96028 whole entry): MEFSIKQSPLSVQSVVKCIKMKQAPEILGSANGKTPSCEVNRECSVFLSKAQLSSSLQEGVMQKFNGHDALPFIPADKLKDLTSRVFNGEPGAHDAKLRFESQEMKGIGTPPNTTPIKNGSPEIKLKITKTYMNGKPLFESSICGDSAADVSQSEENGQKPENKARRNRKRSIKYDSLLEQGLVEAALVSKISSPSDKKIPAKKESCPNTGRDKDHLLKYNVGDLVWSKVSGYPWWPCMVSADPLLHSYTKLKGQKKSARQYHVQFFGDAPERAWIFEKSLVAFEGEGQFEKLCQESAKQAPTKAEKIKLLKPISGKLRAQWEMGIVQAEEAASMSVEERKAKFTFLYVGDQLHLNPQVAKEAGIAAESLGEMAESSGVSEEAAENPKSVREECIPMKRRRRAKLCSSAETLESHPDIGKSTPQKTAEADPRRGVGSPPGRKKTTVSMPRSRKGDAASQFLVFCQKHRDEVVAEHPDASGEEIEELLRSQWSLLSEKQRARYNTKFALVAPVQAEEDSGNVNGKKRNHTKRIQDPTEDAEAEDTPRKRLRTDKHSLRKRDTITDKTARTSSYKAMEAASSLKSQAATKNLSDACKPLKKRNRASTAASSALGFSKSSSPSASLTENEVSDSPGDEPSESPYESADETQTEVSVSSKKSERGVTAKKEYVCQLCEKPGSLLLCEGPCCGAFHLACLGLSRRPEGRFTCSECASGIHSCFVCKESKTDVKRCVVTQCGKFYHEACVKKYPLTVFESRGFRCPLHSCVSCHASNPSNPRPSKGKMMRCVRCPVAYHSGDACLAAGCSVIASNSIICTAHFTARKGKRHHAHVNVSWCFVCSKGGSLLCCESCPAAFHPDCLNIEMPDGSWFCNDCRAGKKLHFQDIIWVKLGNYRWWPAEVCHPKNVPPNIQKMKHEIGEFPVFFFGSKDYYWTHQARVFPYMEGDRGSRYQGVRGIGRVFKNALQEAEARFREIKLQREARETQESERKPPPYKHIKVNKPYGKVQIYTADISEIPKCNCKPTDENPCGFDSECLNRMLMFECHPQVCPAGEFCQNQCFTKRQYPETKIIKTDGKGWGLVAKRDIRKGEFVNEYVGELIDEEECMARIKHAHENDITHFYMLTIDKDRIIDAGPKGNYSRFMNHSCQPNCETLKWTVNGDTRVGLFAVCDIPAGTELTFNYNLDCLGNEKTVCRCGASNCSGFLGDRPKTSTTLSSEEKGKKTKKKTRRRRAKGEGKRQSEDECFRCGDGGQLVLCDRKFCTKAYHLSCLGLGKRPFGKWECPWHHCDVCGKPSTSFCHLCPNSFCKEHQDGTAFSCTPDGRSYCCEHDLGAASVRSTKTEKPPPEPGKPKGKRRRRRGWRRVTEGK
# [18] = molecular target: T4, Aminopeptidase N (Plasmodium falciparum FcB1/Columbia, UniProt O96935); assay: malaria alanyl aminopeptidase activity blockers – biochemical, fluorogenic H-Leu-NHMec substrate, 1536-well (AID 1445); design: species or system Plasmodium falciparum 3D7, 3D7
# T4 sequence (O96935 whole entry): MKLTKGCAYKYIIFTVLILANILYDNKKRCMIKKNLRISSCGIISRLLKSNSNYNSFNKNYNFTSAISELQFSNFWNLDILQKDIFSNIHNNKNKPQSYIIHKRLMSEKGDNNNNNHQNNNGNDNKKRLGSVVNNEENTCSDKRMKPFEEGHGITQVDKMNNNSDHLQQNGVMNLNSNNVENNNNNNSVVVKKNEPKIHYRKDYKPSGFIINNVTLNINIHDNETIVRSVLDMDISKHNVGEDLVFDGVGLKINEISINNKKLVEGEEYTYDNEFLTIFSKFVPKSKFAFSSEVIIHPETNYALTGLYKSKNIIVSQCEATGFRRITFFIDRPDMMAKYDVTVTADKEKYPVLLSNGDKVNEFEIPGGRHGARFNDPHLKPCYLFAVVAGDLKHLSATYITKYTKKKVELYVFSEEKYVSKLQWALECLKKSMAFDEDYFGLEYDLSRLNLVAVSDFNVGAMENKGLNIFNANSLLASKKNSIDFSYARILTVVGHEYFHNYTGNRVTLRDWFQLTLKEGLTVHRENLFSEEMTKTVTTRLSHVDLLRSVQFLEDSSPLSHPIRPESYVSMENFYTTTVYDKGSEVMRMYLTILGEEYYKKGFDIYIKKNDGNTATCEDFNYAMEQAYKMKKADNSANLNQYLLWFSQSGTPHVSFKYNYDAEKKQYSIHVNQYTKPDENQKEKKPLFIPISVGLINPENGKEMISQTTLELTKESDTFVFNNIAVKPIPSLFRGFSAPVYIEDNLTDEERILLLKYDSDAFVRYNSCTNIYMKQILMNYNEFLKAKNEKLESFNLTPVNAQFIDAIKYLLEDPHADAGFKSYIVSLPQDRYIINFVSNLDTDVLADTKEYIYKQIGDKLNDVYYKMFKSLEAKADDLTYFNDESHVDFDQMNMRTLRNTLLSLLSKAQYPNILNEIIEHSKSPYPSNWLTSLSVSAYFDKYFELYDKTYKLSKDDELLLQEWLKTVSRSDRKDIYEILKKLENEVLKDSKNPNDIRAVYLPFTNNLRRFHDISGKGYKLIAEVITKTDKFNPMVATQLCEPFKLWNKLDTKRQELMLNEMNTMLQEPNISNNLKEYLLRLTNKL
# [19] = system: Streptococcus sp. 'group A'; assay: Streptococcus pyogenes SK(-)GAS viability under kanamycin – luminescence, BacTiterGlo, confirmation, counter-screen for streptokinase expression inhibitor project, dose response (AID 1900); format: functional, organism-based
# [20] = system: Streptococcus; assay: GAS UMAA2166 growth inhibition – luminescence, BacTiterGlo, counter-screen for streptokinase expression inhibitor project, dose response (AID 1915); format: functional, organism-based;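 also: potency for reduction of bacterial viability or growth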
# Albumin, sequence (P02769 whole entry): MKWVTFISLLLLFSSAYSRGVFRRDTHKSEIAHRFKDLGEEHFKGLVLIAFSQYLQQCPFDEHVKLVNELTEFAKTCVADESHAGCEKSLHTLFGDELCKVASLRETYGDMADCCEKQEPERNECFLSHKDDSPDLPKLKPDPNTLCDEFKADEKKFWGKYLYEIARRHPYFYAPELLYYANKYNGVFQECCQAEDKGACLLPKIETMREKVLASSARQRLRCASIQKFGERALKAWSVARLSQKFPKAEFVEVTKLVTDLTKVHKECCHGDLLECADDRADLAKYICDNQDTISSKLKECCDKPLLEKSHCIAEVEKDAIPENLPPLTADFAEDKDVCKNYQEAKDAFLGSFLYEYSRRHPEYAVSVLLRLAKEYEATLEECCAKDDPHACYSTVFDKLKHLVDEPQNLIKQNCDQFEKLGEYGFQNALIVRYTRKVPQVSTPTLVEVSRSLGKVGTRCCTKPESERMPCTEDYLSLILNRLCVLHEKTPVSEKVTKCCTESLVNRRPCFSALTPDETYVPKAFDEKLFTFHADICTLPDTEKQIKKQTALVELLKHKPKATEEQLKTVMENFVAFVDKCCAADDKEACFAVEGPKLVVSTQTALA
smiles,measurement,setting,value
COc1ccc2nc(Nc3nc(O)cc(CSc4nc5ccccc5[nH]4)n3)nc(C)c2c1,EC50,[1],5.63 µM (active)
same,EC50,[2],10.2 µM (active)
same,EC50,[3],10.2 µM (active)
same,AC50,[4],20.5 µM (active)
same,IC50,[5],> 79 µM (inactive)
same,AC50,[6],2.16 µM (active)
same,AC50,[7],5.77 µM (active)
same,AC50,[8],3.57 µM (active)
same,AC50,[9],3.06 µM (active)
same,AC50,[10],4 µM (active)
O=C(CNC(=O)c1ccccc1Cl)N/N=C/C=C/c1ccccc1,IC50,[11],> 29.9 µM (inactive)
same,EC50,[12],> 29.9 µM (inactive)
CC1Oc2ccccc2C=C1/C=N/Nc1ccc(C(=O)O)cc1 (configuration not stated),EC50,[13],2.99 µM (active)
same,AC50,[14],34.2 µM (active)
Cc1ccc(/C=C2\SC(=S)N(CCC(=O)NNC(=O)c3ccccc3O)C2=O)cc1,IC50,[15],> 94.1 µM (inactive)
CCOC(=O)C(NCCc1ccccc1)(NC(C)=O)C(F)(F)F (configuration not stated),IC50,[11],> 29.9 µM (inactive)
same,EC50,[12],> 29.9 µM (inactive)
CCOc1cc(CNCCc2c[nH]c3ccccc23)cc(Cl)c1OC,EC50,[16],3.35 µM (active)
same,AC50,[6],1.77 µM (active)
same,AC50,[7],21.5 µM (active)
same,AC50,[8],0.843 µM (active)
same,AC50,[9],2.85 µM (active)
same,AC50,[10],5.22 µM (active)
CC1CCCC(C)N1/N=C/c1ccc(O)c(O)c1 (configuration not stated),IC50,[15],> 94.1 µM (inactive)
same,AC50,[17],9.77 µM (active)
O=C(CCN1C(=O)/C(=C\c2ccccc2)SC1=S)NNC(=O)c1ccccc1O,IC50,[15],> 94.1 µM (inactive)
COc1ccc(-c2nn(C)c(=O)c3ccccc23)cc1NC(=O)COc1ccccc1,AC50,[7],42.7 µM (active)
same,AC50,[9],46.2 µM (active)
Cc1cc(Cl)ccc1OCC(=O)N1CCCN(C(=O)COc2ccc(Cl)cc2C)CC1,AC50,[6],1.98 µM (active)
same,AC50,[7],67.3 µM (active)
same,AC50,[8],2.8 µM (active)
same,AC50,[9],2.71 µM (active)
same,AC50,[10],2.45 µM (active)
Cc1[nH]n(-c2ccccc2)c(=O)c1N=Nc1ccccc1O,IC50,[18],< 1 µM (active)
same,EC50,[19],1.48 µM (active)
same,EC50,[20],2.12 µM (active)
same,IC50,[15],> 94.1 µM (inactive)
